In patent US6677381B1 (Jame Fine Chemicals, Inc., priority 2001, dated 2004):
Like-named read-outs stand apart in the source and are kept apart here.

Experiments:
[1] = Solubility in water and organic solvents; format: physicochemical
Text: The guaifenesin tannate of the invention is a light-tan colored powder which is soluble in water and alcohols, but is insoluble in methylene chloride, chloroform or toluene. […]

[2] = cited from earlier work; for solubility in alcohols: alcohols such as methanol, ethanol, isopropanol

solubility in alcohols [1]	solubility in toluene [1]	solubility in water [1]	solubility in chloroform [1]	solubility in methylene chloride [1]	solubility in alcohols ([1]; alcohols, physical properties comparison)	solubility in chloroform ([1]; chloroform)	solubility in methylene chloride ([1]; methylene chloride)	solubility in toluene ([1]; toluene)	solubility in water ([1]; water, physical properties comparison)	Compound	solubility in alcohols [2]	solubility in water [2]	solubility in water ([2]; in words)
soluble	sparingly soluble	soluble	–	–	–	–	–	–	–	COc1ccccc1OCC(O)CO (centres unmarked) [guaifenesin, 3-(2-methoxyphenoxy)-1,2-propanediol]	readily soluble	about 5 wt. %	–
soluble	insoluble	soluble	insoluble	insoluble	–	–	–	–	–	O=C(OC[C@H]1O[C@@H](OC(=O)c2cc(O)c(O)c(OC(=O)c3cc(O)c(O)c(O)c3)c2)[C@H](OC(=O)c2cc(O)c(O)c(OC(=O)c3cc(O)c(O)c(O)c3)c2)[C@@H](OC(=O)c2cc(O)c(O)c(OC(=O)c3cc(O)c(O)c(O)c3)c2)[C@@H]1OC(=O)c1cc(O)c(O)c(OC(=O)c2cc(O)c(O)c(O)c2)c1)c1cc(O)c(O)c(OC(=O)c2cc(O)c(O)c(O)c2)c1 [tannic acid]	highly soluble	–	highly soluble
–	–	–	–	–	soluble	insoluble	insoluble	insoluble	soluble	guaifenesin tannate	–	–	–
